Data taken from PubChem BioAssay (NCI).
Where “and” joins values, the source holds several entries; their conditions need not be identical. Identical values can stand only once.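 Assay format: 96-well plates, 48-hour exposure. GI50 marks 50% less growth. TGI: total growth inhibition.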

Assays:
Experiment in all cases: inhibition of tumour cell growth, NCI panel, 48 h
TK-10 renal = system: TK-10 renal
HOP-92 NSCLC = system: HOP-92 NSCLC
SF-539 CNS = system: SF-539 CNS
MALME-3M melanoma = system: MALME-3M melanoma
SK-MEL-5 melanoma = system: SK-MEL-5 melanoma
SK-MEL-28 melanoma = system: SK-MEL-28 melanoma
MDA-MB-435 = system: MDA-MB-435
PC-3 prostate = system: PC-3 prostate
RXF 393 renal = system: RXF 393 renal
786-0 renal = system: 786-0 renal
HT29 colon = system: HT29 colon
DU-145 prostate = system: DU-145 prostate
MOLT-4 leukemia = system: MOLT-4 leukemia
A549 NSCLC = system: A549 NSCLC
SNB-19 CNS = system: SNB-19 CNS
EKVX NSCLC = system: EKVX NSCLC
SK-MEL-2 melanoma = system: SK-MEL-2 melanoma
HCC-2998 colon = system: HCC-2998 colon
UACC-62 melanoma = system: UACC-62 melanoma

Compound	TGI (TK-10 renal)	TGI (HOP-92 NSCLC)	TGI (SF-539 CNS)	TGI (MALME-3M melanoma)	TGI (SK-MEL-5 melanoma)	TGI (SK-MEL-28 melanoma)	TGI (MDA-MB-435)	TGI (PC-3 prostate)	TGI (RXF 393 renal)	TGI (786-0 renal)	TGI (HT29 colon)	TGI (DU-145 prostate)	TGI (MOLT-4 leukemia)	TGI (A549 NSCLC)	TGI (SNB-19 CNS)	TGI (EKVX NSCLC)	TGI (SK-MEL-2 melanoma)	TGI (HCC-2998 colon)	TGI (UACC-62 melanoma)	GI50 (SK-MEL-2 melanoma)
O=C1c2ccccc2C(=O)N1c1ccc(OCCN2CCCCC2)cc1	> 100 µM	> 100 µM	> 100 µM	> 100 µM	> 100 µM	> 100 µM	> 100 µM	> 100 µM	> 100 µM	> 100 µM	> 100 µM	> 100 µM	> 100 µM	> 100 µM	> 100 µM	> 100 µM	> 100 µM	> 100 µM	> 100 µM	
CCC(=O)NCCc1c[nH]c2ccc(OC)cc12	> 100 µM	> 100 µM	> 100 µM	> 100 µM	> 100 µM	> 100 µM	> 100 µM	> 100 µM	> 100 µM	> 100 µM	> 100 µM	> 100 µM	> 100 µM	> 100 µM	> 100 µM	> 100 µM	> 100 µM	> 100 µM	> 100 µM	
Fc1ccc(C(OCCN2CCC3CCC(C2)N3Cc2cc3ccccc3[nH]2)c2ccc(F)cc2)cc1 (centres undefined)	5.38 µM	3.62 µM	3.01 µM	2.96 µM	3.11 µM	3.04 µM	3.55 µM	3.25 µM	3.12 µM	3.08 µM	2.49 µM	3.59 µM	4.03 µM	4.26 µM	7.55 µM	3.73 µM	3.16 µM	3.06 µM	4.46 µM	
CC(C)[Si](OC1=CCCCCC12C(=O)N(C)c1ccccc12)(C(C)C)C(C)C (centres undefined)	80.9 µM	30.8 µM	41.7 µM	45.8 µM	33.8 µM	60.4 µM	67.3 µM	> 100 µM	21.8 µM	37.7 µM	41.1 µM	29.9 µM	> 100 µM	48.8 µM	29.5 µM	38.6 µM	37.6 µM	38.3 µM	59.2 µM	
O=C1OC(CN2CCN(c3ccccc3)CC2)CN1C(=S)Nc1ccccc1 (centres undefined)	> 100 µM	> 100 µM	> 100 µM	> 100 µM	> 100 µM	> 100 µM	> 100 µM	> 100 µM	> 100 µM	> 100 µM	> 100 µM	> 100 µM	> 100 µM	> 100 µM	> 100 µM	> 100 µM	> 100 µM	> 100 µM	> 100 µM	
O=C(/C=C/c1ccc(O)c(O)c1)OCCOC(=O)/C=C/c1ccc(O)c(O)c1	> 100 µM	> 100 µM	52.6 µM	> 100 µM	32.7 µM	> 100 µM	98 µM	86.5 µM	51.9 µM	> 100 µM	43.4 µM	79.8 µM	44.9 µM	> 100 µM	> 100 µM	83.1 µM	45.8 µM	> 100 µM	35.1 µM	
CC(C)(C)OC(=O)N1CCC23CCCC2C(=O)CC=C13 (centres undefined)	> 100 µM	> 100 µM	> 100 µM	> 100 µM	> 100 µM	> 100 µM	> 100 µM	> 100 µM	> 100 µM	> 100 µM	> 100 µM	> 100 µM	> 100 µM	> 100 µM	> 100 µM	> 100 µM	> 100 µM	> 100 µM	> 100 µM	
Nc1ncc(Cc2nc3ccccc3s2)s1	> 100 µM	> 100 µM	> 100 µM	> 100 µM	> 100 µM	> 100 µM	> 100 µM	> 100 µM	> 100 µM	> 100 µM	> 100 µM	> 100 µM	> 100 µM	> 100 µM	> 100 µM	> 100 µM	> 100 µM	> 100 µM	> 100 µM	
Cn1c(=O)n(CC(Br)CBr)c(=O)n(CC(Br)CBr)c1=O (centres undefined)	> 100 µM	> 100 µM	61.1 µM	> 100 µM	32.9 µM	> 100 µM	> 100 µM	> 100 µM	> 100 µM	> 100 µM	54.6 µM	> 100 µM	87.1 µM	> 100 µM	> 100 µM	88.7 µM	> 100 µM	81.1 µM	72.8 µM	
COC/C=C\[C@@]1(O)CCCC[C@@H]1CC(OC)OC	> 100 µM	> 100 µM	> 100 µM	> 100 µM	> 100 µM	> 80.6 µM	> 76.1 µM	> 100 µM	> 92.1 µM	> 100 µM	> 100 µM	> 100 µM	31.4 µM	> 100 µM	> 100 µM	> 100 µM	> 100 µM	> 100 µM		
CC(Cc1ccc(O)c(O)c1)C(C)Cc1ccc(O)c(O)c1 (centres undefined)	> 87.7 µM	12.2 µM	33.9 µM	29.5 µM	32.9 µM	31.1 µM	28.3 µM	> 79.6 µM	31.7 µM	32.8 µM	51.5 µM	46.4 µM	> 62.5 µM	> 88.4 µM	50.9 µM	58.8 µM	42.9 µM	38.9 µM	32.8 µM	
Cc1ccc(C2=Nc3c(N)nc(N)nc3NC(c3ccccc3)C2)cc1 (centres undefined)	27.6 µM and 40.2 µM	24.3 µM and 24.9 µM	25.3 µM	23.6 µM and 24.5 µM	34.4 µM	24.8 µM and 35.3 µM	7.25 µM and 6.01 µM	22.9 µM and 24 µM	25.2 µM and 21.3 µM	24.3 µM and 31.1 µM	14.1 µM and 14.8 µM	28.3 µM and 29.3 µM	28.3 µM and 97.6 µM	26.3 µM and 23.6 µM	27 µM and 32.9 µM	27.2 µM and 28.2 µM	22 µM and 17.9 µM	19.3 µM and 18.7 µM	22.7 µM and 26 µM	9.71 µM and 4.19 µM
COC(=O)C1=C(C)NC(C)=C([N+](=O)[O-])C1c1cccc(NO)c1 (centres undefined)	26 µM	28 µM	37 µM	22.9 µM	15 µM	> 69.4 µM	5.3 µM	26.1 µM	> 85.4 µM	> 87.9 µM	9.79 µM	> 100 µM	> 26 µM	> 89.6 µM	> 100 µM	> 61.5 µM	> 43.8 µM	16.8 µM	> 31.6 µM	
C=C(Cl)C(Cl)(CBr)CCC(Cl)C(C)(C)Cl (centres undefined)	2.71 µM	2.52 µM	1.35 µM	22.8 µM	24.7 µM	3.8 µM	8.21 µM	3.36 µM	10.9 µM	1.32 µM	0.968 µM	3.31 µM	53 µM	12.7 µM	7 µM	20.9 µM	1.84 µM	16.4 µM		
CO[C@H]1O[C@@H]2CO[C@@H](c3ccccc3)O[C@H]2C[C@]12CCC/C=C\CO2	59.2 µM	28.4 µM	29.1 µM	26.4 µM	44.1 µM	26.6 µM	26.5 µM	50.8 µM	28.3 µM	26.2 µM	40.5 µM	> 75 µM	32 µM	> 75 µM	> 75 µM	25.8 µM	41.4 µM	54.5 µM	> 75 µM	
Cc1cccc2c1C(=O)C(C1OC(=O)c3ccccc31)C2 (centres undefined)	> 100 µM	> 100 µM	> 100 µM	> 100 µM	> 100 µM	> 100 µM	> 100 µM	> 100 µM	> 100 µM	> 100 µM	> 100 µM	> 100 µM	> 100 µM	> 100 µM	> 100 µM	> 100 µM	> 100 µM	> 100 µM	> 100 µM	
N#Cc1c(NC(=S)NCc2ccccc2)sc2c1CCN(N1CCc3c(sc(NC(=S)NCc4ccccc4)c3C#N)C1)C2	> 100 µM	> 100 µM	> 100 µM	> 100 µM	> 100 µM	> 100 µM	> 100 µM	> 100 µM	> 100 µM	> 100 µM	> 100 µM	> 100 µM	> 100 µM	> 100 µM	> 100 µM	> 100 µM	> 100 µM	> 100 µM	> 100 µM	
CN1C[C@@H]2CCCN2P1Oc1cccc2cccnc12 (some centres undefined)	> 100 µM	> 100 µM	> 100 µM	> 100 µM	> 100 µM	> 100 µM	> 100 µM	> 100 µM	> 100 µM	> 100 µM	> 100 µM	> 100 µM	58.1 µM	> 100 µM	> 100 µM	90.6 µM	> 100 µM	> 100 µM	> 100 µM	
C[N+]1(C)CN(c2ccccc2)C2(CCN(CCCC(=O)c3cccs3)CC2)C1=O	> 100 µM	> 100 µM	> 100 µM	> 100 µM	77.1 µM	> 100 µM	> 100 µM	> 100 µM	> 100 µM	> 100 µM	> 100 µM	> 100 µM	> 100 µM	> 100 µM	> 100 µM	> 100 µM	> 100 µM	> 100 µM	> 100 µM	
O=C1c2cc(CCl)sc2C(=O)c2ccsc21	3.41 µM	1.47 µM	0.553 µM	0.0781 µM	0.0821 µM	0.149 µM	0.0339 µM	0.839 µM	0.883 µM	2.88 µM	2.56 µM	0.332 µM	0.47 µM	0.417 µM	0.527 µM	2.74 µM	0.42 µM	3.04 µM	0.319 µM	
O=C(C1OC1c1ccc([N+](=O)[O-])cc1)C12CC3CC(CC(C3)C1)C2 (centres undefined)	33.3 µM	40.3 µM	28.9 µM	32.4 µM	29.1 µM	33.4 µM	28.4 µM	28.1 µM	46.4 µM	22.1 µM	47.7 µM	46.2 µM	49.3 µM	52.7 µM	32 µM	37.4 µM	39.1 µM	44.4 µM	28.9 µM	
CC/C(Cl)=N\OC(=O)Nc1ccc(C#N)cc1	30.1 µM	8.54 µM	30.5 µM	8.25 µM	25.9 µM	33.8 µM	29.4 µM	30.5 µM	21.4 µM	23.5 µM	36.9 µM	29.6 µM	11 µM	35.7 µM	> 100 µM	26.3 µM	30 µM	30.1 µM	28.4 µM	
C[C@@H]1C(O)CC[C@H](C)C12CC=CC2=O (some centres undefined)	> 100 µM	> 100 µM	> 100 µM	> 100 µM	> 100 µM	> 100 µM	> 100 µM	> 100 µM	> 100 µM	> 100 µM	> 100 µM	> 100 µM	> 100 µM	> 100 µM	> 100 µM	> 100 µM	> 100 µM	> 100 µM	> 100 µM	
CCOC(=O)c1nc2cc(C(F)(F)F)ccc2nc1Nc1ccc(Cl)c(Cl)c1	> 100 µM	94.1 µM	> 100 µM	> 100 µM	> 100 µM	> 100 µM	> 100 µM	> 100 µM	> 100 µM	> 100 µM	> 100 µM	> 100 µM	> 100 µM	> 100 µM	> 100 µM	> 100 µM	> 100 µM	> 100 µM	> 100 µM	
CC1(C)OCN(c2ccc(Cl)cc2)Cn2c1nc1ccccc12	> 100 µM	> 100 µM	> 100 µM	> 100 µM	5.39 µM	> 100 µM	> 100 µM	> 100 µM	> 100 µM	> 100 µM	> 100 µM	> 100 µM	> 100 µM	> 100 µM	> 100 µM	> 100 µM	> 100 µM	> 80.9 µM	5.58 µM	
